# Test results reported in US9500656B2, “Methods for the identification, assessment, and treatment of patients with cancer therapy” (Millennium Pharmaceuticals, Inc., priority 2006, dated 2016).
# Key:
# Format in all cases: in vivo, human
# [1] = tested on: multiple myeloma; assay: Phase 2 clinical study M34100-025 (second or greater relapse, refractory to last prior therapy); details: bortezomib alone
# Excerpt: (§1) See Richardson P G, et al. N Engl J Med., 348:2609-17 (2003). […] See Jagannath, Br J Haematol. 127:165-72 (2004). Patient samples and response criteria from patients participating in these studies, as well as the following additional studies described below were sought for use in pharmacogenomic analyses to identify markers associated with patient survival.
# [2] = tested on: relapsed multiple myeloma; assay: Phase 2 clinical study M34100-024 (first relapse)
# Excerpt: as §1
# [3] = tested on: relapsed or refractory multiple myeloma; assay: Open-label randomized study of bortezomib versus high-dose dexamethasone (Protocol M34101-039); details: for survival: 22 month median follow-up, 44% events occurred; for One-year survival: in vivo
# Method: A multicenter, open-label, randomized study was conducted, comprising 627 enrolled patients with relapsed or refractory multiple myeloma (Protocol M34101-039). See Richardson et. al., N. Engl. J. Med., 352:2487-2498 (2005).
# Randomization was to be stratified, based on the number of lines of prior therapy (one prior line versus more than one prior line of therapy), time of progression relative to treatment (progression while on their most recent therapy or within 6 months of stopping their most recent therapy, or relapse >6 months after receiving their most recent therapy), and screening β2-microglobulin levels (>2.5 mg/L versus ≦2.5 mg/L).
# Patients assigned to the high-dose dexamethasone group received treatment for a maximum of 280 days. Patients in this treatment group received up to four 5-week treatment cycles, followed by up to five 4-week treatment cycles. Within each 5-week treatment cycle, the patient received dexamethasone 40 mg/day PO, once daily on Days 1 to 4, 9 to 12, and 17 to 20 of a 35-day cycle. Within each 4-week treatment cycle, the patient received dexamethasone 40 mg/day PO once daily on Days 1 to 4 of a 28 day cycle.
# (§2) During the study, disease response was assessed according to the European Group for Blood and Marrow Transplant (EBMT) criteria as presented in Table C.
# See Richardson P G, et al. [submitted NEJM].
# Disease progression was determined by Blade criteria as described in Table C and above. […] The date of progression was determined by computer algorithm. P-value from log-rank test adjusted by actual randomization factors. See, Richardson et al., New Engl J Med., submitted.
# [4] = tested on: multiple myeloma; assay: Response (EBMT criteria) in the pharmacogenomic patient subset; details: for CR (number of patients) / MR (number of patients) / NC (number of patients) / PD (number of patients) / PR (number of patients): study 039, pharmacogenomic patients
# Method: as §2
# A total of 264 patient samples were assessed for pharmacogenomic analyses. These patient samples were collected from the clinical trials of bortezomib for the treatment of multiple myeloma (see Table E). […] All pharmacogenomic analyses relied on the European Group for Blood and Marrow Transplant (EBMT) criteria of response category.
# [5] = best confirmed response, bortezomib n = 315, dexamethasone n = 312
# [6] = difference in response rates, bortezomib versus dexamethasone
# [7] = pharmacogenomic set of patients, EBMT criteria
SMILES,survival [3],"Complete Response [3, 5]","Minor Response [3, 5]","Near CR: IF+ [3, 5]","Progressive Disease [3, 5]","SWOG Remission [3, 5]",One-year survival [3],CR (number of patients) [4],MR (number of patients) [4],NC (number of patients) [4],PD (number of patients) [4],PR (number of patients) [4],further results
"CC(C)C[C@H](NC(=O)[C@H](Cc1ccccc1)NC(=O)c1cnccn1)B(O)O [bortezomib, N-pyrazinecarbonyl-L-phenylalanine-L-leucineboronic acid]",30 months,20 (6) n (%),25 (8) n (%),21 (7) n (%),22 (7) n (%),46 (15) n (%),80%,5,5,19,13,25,"CR+PR rate ([1]; 53 of 193 patients): 27%; overall response rate (CR+PR+MR) ([1]; 67 of 193 patients): 35%; CR+PR rate ([2]; bortezomib 1.0 mg/m^2): 30%; CR+PR rate ([2]; bortezomib 1.3 mg/m^2): 38%; decrease in risk of death ([3]; bortezomib group versus dexamethasone, first year after enrollment): 41%; Difference (95% CI), CR + PR + MR [3, 6]: 0.12 (0.04, 0.19); Difference (95% CI), Complete Response [3, 6]: 0.06 (0.03, 0.09); Difference (95% CI), Minor Response [3, 6]: −0.09 (−0.14, −0.04); Difference (95% CI), Near CR: IF+ [3, 6]: 0.06 (0.03, 0.09); Difference (95% CI), No Change [3, 6]: −0.04 (−0.12, 0.04); Difference (95% CI), Overall Response Rate (CR + PR) [3, 6]: 0.20 (0.14, 0.27); Difference (95% CI), Partial Response [3, 6]: 0.15 (0.08, 0.21); Difference (95% CI), Progressive Disease [3, 6]: −0.06 (−0.11, −0.01); Difference (95% CI), SWOG Remission [3, 6]: 0.09 (0.05, 0.14)"
C[C@@H]1C[C@H]2[C@@H]3CCC4=CC(=O)C=C[C@]4(C)[C@@]3(F)[C@@H](O)C[C@]2(C)[C@@]1(O)C(=O)CO [dexamethasone],24 months,2 (<1) n (%),52 (17) n (%),3 (<1) n (%),41 (13) n (%),17 (5) n (%),66%,1,11,16,22,13,"Overall Response Rate (CR + PR) [3, 5]: 56 (18) n (%); Partial Response [3, 5]: 54 (17) n (%); CR+PR rate [4, 7]: 22.2%; overall response rate [4, 7]: 39.7%"
